Test results reported in the CheMixHub viscosity set.
± gives the uncertainty stated by the source.

Experiment: xn = mol fraction of the nth substance listed

CC(C)Cc1ccccc1 + CCCCCCCCCCCC
viscosity [mPa·s], 102 kPa
Settings | x1 = 0.1006 | x1 = 0.2004 | x1 = 0.2996 | x1 = 0.3998 | x1 = 0.5 | x1 = 0.6001 | x1 = 0.6993 | x1 = 0.7997 | x1 = 0.8998
293.15 K | 1.41 ± 0.02 | 1.35 ± 0.02 | 1.28 ± 0.02 | 1.23 ± 0.02 | 1.17 ± 0.02 | 1.13 ± 0.02 | 1.09 ± 0.02 | 1.05 ± 0.02 | 1.03 ± 0.02
303.15 K | 1.19 ± 0.02 | 1.14 ± 0.02 | 1.09 ± 0.02 | 1.05 ± 0.02 | 1 ± 0.02 | 0.97 ± 0.021 | 0.945 ± 0.021 | 0.915 ± 0.021 | 0.896 ± 0.021
313.15 K | 1.02 ± 0.02 | 0.984 ± 0.021 | 0.949 ± 0.021 | 0.915 ± 0.021 | 0.88 ± 0.021 | 0.848 ± 0.021 | 0.823 ± 0.021 | 0.798 ± 0.021 | 0.781 ± 0.021
323.15 K | 0.892 ± 0.021 | 0.861 ± 0.021 | 0.83 ± 0.021 | 0.8 ± 0.021 | 0.773 ± 0.021 | 0.749 ± 0.021 | 0.726 ± 0.021 | 0.706 ± 0.021 | 0.691 ± 0.021

OCCCCO + NC=O
Settings | viscosity [mPa·s]
318.15 K, 101 kPa, x2 = 0.1052 | 18.95 ± 0.33

O=S=O + CCOC(C)=O
298.15 K, 101 kPa
Settings | viscosity [mPa·s]
x1 = 0.115 | 0.4299 ± 0.011
x1 = 0.236 | 0.4289 ± 0.011
x1 = 0.35 | 0.4239 ± 0.011

CN(c1ccccc1)c1ccccc1 + Oc1ccccc1Cl
viscosity [mPa·s], 101 kPa
Settings | x2 = 0.1862 | x2 = 0.3326 | x2 = 0.47 | x2 = 0.5927 | x2 = 0.6593 | x2 = 0.7583 | x2 = 0.8455 | x2 = 0.9249
293.15 K | 6.47 ± 0.07 | 5.95 ± 0.07 | 5.53 ± 0.06 | 5.2 ± 0.06 | 5.02 ± 0.06 | 4.79 ± 0.06 | 4.59 ± 0.05 | 4.4 ± 0.05
303.15 K | 4.635 ± 0.05 | 4.305 ± 0.046 | 4.03 ± 0.04 | 3.805 ± 0.041 | 3.685 ± 0.039 | 3.51 ± 0.04 | 3.36 ± 0.04 | 3.215 ± 0.035
313.15 K | 3.5 ± 0.03 | 3.25 ± 0.03 | 3.04 ± 0.03 | 2.85 ± 0.03 | 2.75 ± 0.03 | 2.6 ± 0.03 | 2.49 ± 0.03 | 2.39 ± 0.02

O=S=O + Cc1cc(C)cc(C)c1
298.15 K, 101 kPa
Settings | viscosity [mPa·s]
x1 = 0.137 | 0.6381 ± 0.017
x1 = 0.223 | 0.6062 ± 0.016
x1 = 0.255 | 0.5926 ± 0.015

O=C1CCCN1 + OCCCO
308.15 K, 101 kPa
Settings | viscosity [mPa·s]
x1 = 0.1929 | 22.6 ± 1
x1 = 0.3918 | 17.83 ± 0.82
x1 = 0.4915 | 15.95 ± 0.74
x1 = 0.5918 | 14.51 ± 0.68
x1 = 0.6929 | 12.9 ± 0.61
x1 = 0.897 | 10.06 ± 0.49

NC(CO)(CO)CO + O
Settings | viscosity [mPa·s]
298.15 K, 101 kPa, x1 = 0.001 | 0.91 ± 0.02
298.15 K, 101 kPa, x1 = 0.01 | 1.03 ± 0.02
298.15 K, 101 kPa, x1 = 0.022 | 1.18 ± 0.03
298.15 K, 101 kPa, x1 = 0.034 | 1.46 ± 0.03
298.15 K, 101 kPa, x1 = 0.055 | 1.97 ± 0.04
303 K, 101 kPa, x1 = 0.06 | 2.19 ± 0.03
303.15 K, 101 kPa, x1 = 0.001 | 0.79 ± 0.02
303.15 K, 101 kPa, x1 = 0.01 | 0.91 ± 0.02
303.15 K, 101 kPa, x1 = 0.022 | 1.05 ± 0.02
303.15 K, 101 kPa, x1 = 0.034 | 1.28 ± 0.03
303.15 K, 101 kPa, x1 = 0.055 | 1.77 ± 0.04
303.15 K, 101.33 kPa, x1 = 0.008 | 0.905 ± 0.009
303.15 K, 101.33 kPa, x1 = 0.02 | 1.042 ± 0.01
303.15 K, 101.33 kPa, x1 = 0.04 | 1.475 ± 0.014
303.15 K, 101.33 kPa, x1 = 0.047 | 1.789 ± 0.016
308.15 K, 101 kPa, x1 = 0.001 | 0.69 ± 0.02
308.15 K, 101 kPa, x1 = 0.01 | 0.79 ± 0.02
308.15 K, 101 kPa, x1 = 0.022 | 0.94 ± 0.02
308.15 K, 101 kPa, x1 = 0.034 | 1.14 ± 0.02
308.15 K, 101 kPa, x1 = 0.055 | 1.54 ± 0.03
313 K, 101 kPa, x1 = 0.06 | 1.68 ± 0.02
313.15 K, 101 kPa, x1 = 0.001 | 0.62 ± 0.01
313.15 K, 101 kPa, x1 = 0.01 | 0.71 ± 0.02
313.15 K, 101 kPa, x1 = 0.022 | 0.85 ± 0.02
313.15 K, 101 kPa, x1 = 0.034 | 1.03 ± 0.02
313.15 K, 101 kPa, x1 = 0.055 | 1.37 ± 0.03
313.15 K, 101.33 kPa, x1 = 0.008 | 0.738 ± 0.007
313.15 K, 101.33 kPa, x1 = 0.02 | 0.846 ± 0.008
313.15 K, 101.33 kPa, x1 = 0.026 | 0.981 ± 0.009
313.15 K, 101.33 kPa, x1 = 0.047 | 1.399 ± 0.013
318.15 K, 101 kPa, x1 = 0.001 | 0.58 ± 0.01
318.15 K, 101 kPa, x1 = 0.01 | 0.65 ± 0.01
318.15 K, 101 kPa, x1 = 0.022 | 0.77 ± 0.02
318.15 K, 101 kPa, x1 = 0.034 | 0.93 ± 0.02
318.15 K, 101 kPa, x1 = 0.055 | 1.22 ± 0.03
323 K, 101 kPa, x1 = 0.06 | 1.32 ± 0.02
323.15 K, 101 kPa, x1 = 0.001 | 0.52 ± 0.01
323.15 K, 101 kPa, x1 = 0.022 | 0.71 ± 0.02
323.15 K, 101 kPa, x1 = 0.034 | 0.84 ± 0.02
323.15 K, 101 kPa, x1 = 0.055 | 1.11 ± 0.02
323.15 K, 101.33 kPa, x1 = 0.008 | 0.616 ± 0.006
323.15 K, 101.33 kPa, x1 = 0.02 | 0.705 ± 0.007
323.15 K, 101.33 kPa, x1 = 0.026 | 0.811 ± 0.008
323.15 K, 101.33 kPa, x1 = 0.04 | 0.962 ± 0.009
323.15 K, 101.33 kPa, x1 = 0.047 | 1.129 ± 0.011

CCCCCCCC/C=C\CCCCCCCC(=O)O + CN1CCC[C@H]1c1cccnc1
viscosity [mPa·s], 101 kPa
Settings | 298.15 K | 323.15 K
x2 = 0.1049 | 74.27 ± 1.1 | 22.13 ± 0.36
x2 = 0.1989 | 107 ± 2.2 | 29.28 ± 1.5
x2 = 0.2016 | 108 ± 2.2 | 29.56 ± 1.6
x2 = 0.2132 | 110.3 ± 2.3 | 30.03 ± 0.54
x2 = 0.2175 | 110.4 ± 2.3 | 30.15 ± 0.54
x2 = 0.2346 | 112.3 ± 2.4 | 30.48 ± 0.53
x2 = 0.2482 | 110.3 ± 2.3 | 30.13 ± 0.52
x2 = 0.2489 | 110 ± 2.3 | 30.12 ± 0.52
x2 = 0.2601 | 109.3 ± 2.3 | 30.1 ± 0.52
x2 = 0.2826 | 105.3 ± 2.1 | 28.77 ± 0.5
x2 = 0.298 | 102.5 ± 2 | 28.02 ± 0.6
x2 = 0.4102 | 73.48 ± 1.1 | 22.19 ± 0.36
x2 = 0.4841 | 51.84 ± 0.61 | 17.6 ± 0.27
x2 = 0.5948 | 34.19 ± 0.43 | 12.35 ± 0.18
x2 = 0.7031 | 20.12 ± 0.26 | 8.136 ± 0.12
x2 = 0.7939 | 11.7 ± 0.15 | 5.197 ± 0.073
x2 = 0.8975 | 7.276 ± 0.093 | 3.432 ± 0.047

[Cl-].[Cl-].[Cl-].[Cl-].[Sn+4] + CCCC(=O)OC
101 kPa, x1 = 0.335
Settings | viscosity [mPa·s]
298.15 K | 22.06 ± 0.56
323.15 K | 4.849 ± 0.16

[Cl-].[Cl-].[Cl-].[Cl-].[Sn+4] + O=C(O)C(Cl)(Cl)Cl
323.15 K, 101 kPa
Settings | viscosity [mPa·s]
x1 = 0.1911 | 2.66 ± 0.11
x1 = 0.4139 | 1.448 ± 0.061
x1 = 0.667 | 0.959 ± 0.04

O=S=O + ClC(Cl)Cl
298.15 K, 101 kPa
Settings | viscosity [mPa·s]
x1 = 0.0035 | 0.5141 ± 0.013
x1 = 0.004762 | 0.5053 ± 0.013
x1 = 0.00539 | 0.5022 ± 0.013

O=C1CCCN1 + COCCO
298.15 K, 101 kPa
Settings | viscosity [mPa·s]
x1 = 0.0049 | 1.544 ± 0.032
x1 = 0.0127 | 1.567 ± 0.033
x2 = 0.0059 | 14.01 ± 0.29
x2 = 0.0144 | 13.59 ± 0.29
x2 = 0.0218 | 13.27 ± 0.28
x2 = 0.0326 | 12.77 ± 0.27
x2 = 0.0446 | 12.37 ± 0.26
x2 = 0.0689 | 11.33 ± 0.24
x2 = 0.0849 | 10.74 ± 0.23
x2 = 0.1078 | 10.07 ± 0.21
x2 = 0.127 | 9.467 ± 0.2
x2 = 0.1824 | 8.072 ± 0.17
x2 = 0.2392 | 6.994 ± 0.15
x2 = 0.2918 | 6.075 ± 0.13
x2 = 0.3249 | 5.599 ± 0.12
x2 = 0.3711 | 5.006 ± 0.11
x2 = 0.4202 | 4.585 ± 0.096
x2 = 0.5242 | 3.631 ± 0.076
x2 = 0.5773 | 3.264 ± 0.068
x2 = 0.6342 | 2.895 ± 0.061
x2 = 0.6686 | 2.717 ± 0.057
x2 = 0.7286 | 2.446 ± 0.051
x2 = 0.7755 | 2.248 ± 0.047
x2 = 0.8174 | 2.089 ± 0.044
x2 = 0.8558 | 1.966 ± 0.041
x2 = 0.9003 | 1.819 ± 0.038
x2 = 0.9214 | 1.756 ± 0.037
x2 = 0.9381 | 1.703 ± 0.036
x2 = 0.9524 | 1.669 ± 0.035
x2 = 0.9729 | 1.604 ± 0.033

O=C1CCCN1 + CCCCO
Settings | viscosity [mPa·s]
293.15 K, 101 kPa, x1 = 0.8554 | 10.75 ± 0.79

Cc1cc(C)cc(C)c1 + C1CCOC1
298.15 K, 101 kPa
Settings | viscosity [mPa·s]
x2 = 0.0735 | 0.5973 ± 0.01
x2 = 0.1513 | 0.5921 ± 0.01
x2 = 0.2274 | 0.5863 ± 0.01
x2 = 0.2986 | 0.5793 ± 0.01
x2 = 0.3672 | 0.5728 ± 0.01
x2 = 0.4305 | 0.5659 ± 0.0099
x2 = 0.4912 | 0.5568 ± 0.0098
x2 = 0.6055 | 0.5353 ± 0.0094
x2 = 0.6784 | 0.5237 ± 0.0092
x2 = 0.7516 | 0.512 ± 0.009
x2 = 0.828 | 0.4999 ± 0.0088
x2 = 0.879 | 0.4857 ± 0.0086
x2 = 0.9412 | 0.4724 ± 0.0083

O=S(=O)(O)CCCN1CCOCC1 + O
viscosity [mPa·s], 101.3 kPa
Settings | x1 = 0.003708 | x1 = 0.007256 | x1 = 0.009684 | x1 = 0.01083 | x1 = 0.01439 | x1 = 0.0179
298.15 K | 0.947 ± 0.038 | 1.027 ± 0.042 | 1.07 ± 0.043 | 1.098 ± 0.045 | 1.189 ± 0.048 | 1.276 ± 0.052
308.15 K | 0.765 ± 0.031 | 0.826 ± 0.034 | 0.863 ± 0.035 | 0.886 ± 0.036 | 0.963 ± 0.039 | 1.03 ± 0.042
318.15 K | 0.634 ± 0.026 | 0.684 ± 0.028 | 0.711 ± 0.029 | 0.733 ± 0.03 | 0.797 ± 0.032 | 0.851 ± 0.035
